Measurements as given in article PMC8603191, “Fragment-based design of selective GPCR ligands guided by free energy simulations” (Chemical communications (Cambridge, England), 2021).
Values joined by “and” are separate entries in the source; they are usually repeats but may differ in a detail not shown here. Identical values can stand only once.

Key:
human A1AR [1] = target: T1, human A1AR (Homo sapiens, UniProt P30542); experiment: Radioligand binding assay, displacement of [3H]DPCPX; conditions: for ligand efficiency (LE, binding free energy per heavy atom): A1AR; for Free energy of binding (ΔG) A1AR: calculated from experimental binding affinities
T1 construct: expressed in transfected cells; host or cells: HEK293 (membrane preparations)
T1 sequence (P30542 1-326): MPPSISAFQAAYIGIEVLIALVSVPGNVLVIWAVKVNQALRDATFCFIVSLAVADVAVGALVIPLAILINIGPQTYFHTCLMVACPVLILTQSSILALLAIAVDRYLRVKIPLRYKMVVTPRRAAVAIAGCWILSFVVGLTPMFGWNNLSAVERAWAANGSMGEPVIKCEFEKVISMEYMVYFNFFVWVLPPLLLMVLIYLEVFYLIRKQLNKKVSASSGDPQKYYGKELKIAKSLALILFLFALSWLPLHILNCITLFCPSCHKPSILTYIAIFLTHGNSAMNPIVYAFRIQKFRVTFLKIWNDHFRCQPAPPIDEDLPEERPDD
Experimental: (§1) Radioligand binding assays. HEK293 cells expressing the human A1- or A2AARs were cultured in DMEM supplemented with 10% fetal bovine serum, 100 Units/ml penicillin, 100 µg/ml streptomycin, and 2 µmol/ml glutamine. Cells were detached from plates by scraping into cold PBS and centrifuged at 250 g for 5 min. The pellets were resuspended in ice-cold Tris HCl buffer (50 mM, pH 7.4) and then homogenized. After homogenization and suspension, cells were centrifuged at 1000 g for 10 min, and the pellet was discarded.
(§2) The suspension was then re-centrifuged at 20,000 g for 60 min at 4 °C. The pellets were resuspended in buffer containing 3 Units/ml adenosine deaminase and incubated at 37°C for 30 min. The aliquots of membrane preparations were stored at −80°C until the binding experiments. For displacement binding assays, membrane preparations (20 µg proteins/tube) were incubated at 25°C for 60 min with a final concentration of [3H]DPCPX (0.5 nM) and [3H]ZM241385 (1.0 nM) for A1- and A2AARs, respectively, in a mixture containing 50 µL of increasing concentrations of a test ligand in a total assay volume of 200 µL of 50 mM Tris HCl, pH 7.4, containing 10 mM MgCl2. Nonspecific binding was determined using 100 µM of XAC. The reaction was terminated by filtration with GF/B filters using a Brandel 24-channel harvester. Filters were placed in scintillation vials containing 5 ml of Hydrofluor scintillation buffer and counted using a PerkinElmer Tricarb 2810TR liquid scintillation counter. […]
(§3) Table S1. Binding affinities of compounds 1-10 based on displacement of [3H]DPCPX and [3H]ZM241385 at the A1AR and A2AAR, respectively.
(§4) Compound Substituent A1AR A2AAR index […]
(§5) a Ki values are expressed as means ± SEM from (2-4) independent experiments. b Free energy of binding (ΔG) calculated from experimental binding affinities (kcal/mol) / Number of heavy atoms (HA). The ligand efficiency (LE) = −ΔG/HA. c Values from Matricon et al.8
(§6) Table S3. Binding affinities of compounds 11-26 based on displacement of [3H]DPCPX and […]
(§7) a K values are expressed as means ± SEM from (2-4) independent experiments.
(§8) Free energy of binding (ΔG) calculated from experimental binding affinities (kcal/mol) / Number of heavy

human A1AR [2] = experiment: as above; conditions: A1AR versus A2AAR; for A1AR selectivity index: from Ki values; for selectivity for the A1AR: Fig. 1
Experimental: as §1, §2, §3, §4, §5, §6, §7, §8

human A2AAR = target: T2, human A2AAR (Homo sapiens, UniProt P29274); experiment: Radioligand binding assay, displacement of [3H]ZM241385; conditions: for Free energy of binding (ΔG) A2AAR: calculated from experimental binding affinities; for Ki: displacement of [3H]ZM241385, means ± SEM from 2-4 independent experiments; for ΔΔG Experimental A2AAR: based on Table S3
T2 construct: expressed in transfected cells; host or cells: HEK293 (membrane preparations)
Experimental: as §1, §2, §3, §4, §5, §6, §7, §8

[3] = compound 1 as reference, based on Table S1
[4] = displacement of [3H]DPCPX, means ± SEM from 2-4 independent experiments
[5] = radioligand binding, Fig. 1, Table S5
[6] = reference compound 5, based on Table S3
[7] = reference compound 9, based on Table S3

T2 sequence (P29274 whole entry): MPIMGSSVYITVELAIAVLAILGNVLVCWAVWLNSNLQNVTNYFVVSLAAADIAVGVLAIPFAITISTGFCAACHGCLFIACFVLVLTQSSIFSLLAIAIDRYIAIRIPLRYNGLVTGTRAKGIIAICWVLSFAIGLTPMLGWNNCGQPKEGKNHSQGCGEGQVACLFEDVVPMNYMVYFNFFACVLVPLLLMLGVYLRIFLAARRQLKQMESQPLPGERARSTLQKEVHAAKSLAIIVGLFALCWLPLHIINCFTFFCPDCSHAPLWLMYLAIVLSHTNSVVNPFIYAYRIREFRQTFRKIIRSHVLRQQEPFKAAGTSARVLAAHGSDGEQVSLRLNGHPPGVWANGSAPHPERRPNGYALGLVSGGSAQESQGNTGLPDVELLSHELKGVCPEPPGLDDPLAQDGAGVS

| SMILES | ligand efficiency (LE, binding free energy per heavy atom) (human A1AR [1]) [kcal mol^−1 HA^−1] | Free energy of binding (ΔG) A1AR (human A1AR [1]) [kcal/mol] | A1AR selectivity index (human A1AR [2]) | selectivity for the A1AR (human A1AR [2]) | Free energy of binding (ΔG) A2AAR (human A2AAR) [kcal/mol] | ΔΔG Experimental A1AR (human A1AR [1]; [3]) | Ki (human A1AR [1]; [4]) | Ki (human A2AAR) [µM] | improvement of A1AR affinity (human A1AR [1]; compared to compound 1) [fold] | Ki (human A1AR [1]; [5]) [µM] | A2AAR selectivity (human A2AAR; A2AAR versus A1AR) [fold] | ΔΔG Experimental A1AR (human A1AR [1]; [6]) | ΔΔG Experimental A2AAR (human A2AAR; reference compound 5) | ΔΔG Experimental A1AR (human A1AR [1]; [7]) | ΔΔG Experimental A2AAR (human A2AAR; reference compound 9) |
| --- | --- | --- | --- | --- | --- | --- | --- | --- | --- | --- | --- | --- | --- | --- | --- |
| CCC(=O)Nc1nc2ccccc2s1 [Compound 2] |  | -7.5 | 1.8 |  | -7.1 | –0.7 ± 0.3 kcal/mol | 3.46 µM and 3.5 µM | 6.19 ± 3.43 |  |  |  |  |  |  |  |
| CC(C)C(=O)Nc1nc2ccccc2s1 [Compound 3] |  | -8.0 | 1.6 |  | -7.7 | –1.2 ± 0.3 kcal/mol | 1.42 µM and 1.4 µM | 2.26 ± 0.36 |  |  |  |  |  |  |  |
| O=C(Nc1nc2ccccc2s1)C1CC1 [Compound 4] |  | -7.7 | 1.4 |  | -7.5 | –0.9 ± 0.2 kcal/mol | 2.35 µM and 2.4 µM | 3.27 ± 1.14 |  |  |  |  |  |  |  |
| CC(C)(C)C(=O)Nc1nc2ccccc2s1 [Compound 5] | 0.56 | -9.0 | 5.0 | not more selective for the A1AR compared to 1 | -8.0 | –2.2 ± 0.2 kcal/mol |  | 1.43 ± 0.23 | 39 | 0.285 |  |  |  |  |  |
| CCC(CC)C(=O)Nc1nc2ccccc2s1 [Compound 6] |  | -8.2 | 2.8 |  | -7.6 | –1.4 ± 0.1 kcal/mol | 1.04 µM and 1 µM | 2.92 ± 0.72 |  |  |  |  |  |  |  |
| O=C(Nc1nc2ccccc2s1)C1CCCCC1 [Compound 7] |  | -8.2 | 3.2 |  | -7.5 | –1.4 ± 0.2 kcal/mol | 1.08 µM and 1.1 µM | 3.41 ± 0.95 |  |  |  |  |  |  |  |
| O=C(Nc1nc2ccccc2s1)C12CC3CC(CC1C3)C2 [Compound 8] |  | -8.7 | 4.0 |  | -7.8 | –1.9 ± 0.3 kcal/mol | 0.484 ± 0.173 µM | 1.94 ± 0.22 |  |  |  |  |  |  |  |
| Cc1cccc2sc(NC(=O)C(C)(C)C)nc12 [Compound 12] |  | -8.2 | 6.5 |  | -7.1 |  | 1.04 µM and 1 µM | 6.75 ± 0.92 |  |  |  | 0.8 ± 0.1 kcal/mol | 0.9 ± 0.1 kcal/mol |  |  |
| Cc1ccc2sc(NC(=O)C(C)(C)C)nc2c1 [Compound 13] |  | -9.8 | 19.1 |  | -8.0 |  | 0.076 ± 0.017 µM | 1.45 ± 0.6 |  |  |  | –0.8 ± 0.2 kcal/mol | 0.0 ± 0.5 kcal/mol |  |  |
| CC(C)(C)C(=O)Nc1nc2cc(Br)ccc2s1 [Compound 15] | 0.60 | -10.2 | 18.7 | 19 fold | -8.4 |  |  | 0.746 ± 0.149 |  | 0.04 |  | –1.2 ± 0.2 kcal/mol | –0.4 ± 0.2 kcal/mol |  |  |
| CCc1ccc2sc(NC(=O)C(C)(C)C)nc2c1 [Compound 16] |  | -9.4 | 23.6 |  | -7.5 |  | 0.143 ± 0.02 µM | 3.38 ± 0.53 |  |  |  | –0.4 ± 0.1 kcal/mol | 0.5 ± 0.4 kcal/mol |  |  |
| CC(C)(C)C(=O)Nc1nc2cc(C#N)ccc2s1 [Compound 17] |  | -9.1 | 25.2 |  | -7.2 |  | 0.223 ± 0.022 µM | 5.63 ± 0.74 |  |  |  | –0.2 ± 0.1 kcal/mol | 0.8 ± 0.1 kcal/mol |  |  |
| COc1ccc2sc(NC(=O)C(C)(C)C)nc2c1 [Compound 18] |  | -9.4 | 10.5 |  | -8.0 |  | 0.152 ± 0.057 µM | 1.6 ± 0.51 |  |  |  | –0.4 ± 0.3 kcal/mol | 0.1 ± 0.5 kcal/mol |  |  |
| Cc1ccc2sc(NC(=O)C3(C)CCCC3)nc2c1 [Compound 23] |  | -9.9 | 9.8 |  | -8.6 |  | 0.057 ± 0.015 µM | 0.561 ± 0.109 |  |  |  |  |  | –1.4 ± 0.2 kcal/mol | –0.6 ± 0.1 kcal/mol |
| CCc1ccc2sc(NC(=O)C3(C)CCCC3)nc2c1 [Compound 24] |  | -9.6 | 22.4 |  | -7.8 |  | 0.096 ± 0.013 µM | 2.15 ± 0.09 |  |  |  |  |  | –1.1 ± 0.1 kcal/mol | 0.2 ± 0.1 kcal/mol |

The remaining lines, values ahead:

| ligand efficiency (LE, binding free energy per heavy atom) (human A1AR [1]) [kcal mol^−1 HA^−1] | Free energy of binding (ΔG) A1AR (human A1AR [1]) [kcal/mol] | A1AR selectivity index (human A1AR [2]) | selectivity for the A1AR (human A1AR [2]) | Free energy of binding (ΔG) A2AAR (human A2AAR) [kcal/mol] | ΔΔG Experimental A1AR (human A1AR [1]; [3]) | Ki (human A1AR [1]; [4]) | Ki (human A2AAR) [µM] | improvement of A1AR affinity (human A1AR [1]; compared to compound 1) [fold] | Ki (human A1AR [1]; [5]) [µM] | A2AAR selectivity (human A2AAR; A2AAR versus A1AR) [fold] | ΔΔG Experimental A1AR (human A1AR [1]; [6]) | ΔΔG Experimental A2AAR (human A2AAR; reference compound 5) | ΔΔG Experimental A1AR (human A1AR [1]; [7]) | ΔΔG Experimental A2AAR (human A2AAR; reference compound 9) | SMILES |
| --- | --- | --- | --- | --- | --- | --- | --- | --- | --- | --- | --- | --- | --- | --- | --- |
| 0.52 | -6.8 | 7.1 | 7 fold | -5.6 |  |  |  |  |  |  |  |  |  |  | CC(=O)Nc1nc2ccccc2s1 [Compound 1] |
| 0.50 | -8.5 | 2.6 |  | -7.9 | –1.7 ± 0.2 kcal/mol |  | 1.61 ± 0.11 |  | 0.619 |  |  |  |  |  | O=C(Nc1nc2ccccc2s1)C1CCCC1 [Compound 9] |
|  | -8.5 | 0.6 |  | -8.8 | –1.7 ± 0.1 kcal/mol | 0.67 ± 0.08 µM | 0.386 ± 0.043 |  |  | 2 |  |  |  |  | O=C(Nc1nc2ccccc2s1)c1ccccc1 [Compound 10] |
|  | > -5.5 | < 0.3 |  | -6.3 |  | > 100 µM | 25.8 ± 13.2 |  |  |  | > 3.5 kcal/mol | 1.7 ± 0.6 kcal/mol |  |  | Cc1ccc2nc(NC(=O)C(C)(C)C)sc2c1 [Compound 11] |
|  | -9.5 | 11.0 |  | -8.1 |  | 0.117 ± 0.011 µM | 1.29 ± 0.28 |  |  |  | –0.5 ± 0.1 kcal/mol | –0.1 ± 0.2 kcal/mol |  |  | CC(C)(C)C(=O)Nc1nc2cc(Cl)ccc2s1 [Compound 14] |
|  | -9.4 | 1.5 |  | -9.2 |  | 0.133 ± 0.01 µM | 0.199 ± 0.07 |  |  |  | –0.5 ± 0.1 kcal/mol | –1.2 ± 0.2 kcal/mol |  |  | COc1cccc2sc(NC(=O)C(C)(C)C)nc12 [Compound 19] |
|  | -9.6 |  | 6 fold | -8.6 |  |  | 0.572 ± 0.064 |  | 0.095 |  |  |  | –1.1 ± 0.1 kcal/mol | –0.6 ± 0.1 kcal/mol | CC1(C(=O)Nc2nc3ccccc3s2)CCCC1 [Compound 20] |
|  | -10.5 | 11.0 |  | -9.1 |  | 0.023 ± 0.006 µM | 0.252 ± 0.089 |  |  |  |  |  | –2.0 ± 0.2 kcal/mol | –1.1 ± 0.2 kcal/mol | CC1(C(=O)Nc2nc3cc(Cl)ccc3s2)CCCC1 [Compound 21] |
